Measured values taken from PubChem BioAssay AID2048 (NMMLSC, 2009).
Active and inactive are the calls of the source.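 How the source made its calls: active means EC50 at most 30 µM plus a dose-response curve spanning at least 25% response; inactive means the rest.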

Target: Ras-related C3 botulinum toxin substrate 1 (Homo sapiens) (UniProt P63000)
Assay: activated mutant Rac1 GTP binding inhibitors, SAR follow-up, biochemical, pyrazoline analogs, multiplex bead flow cytometry (AID 2048)
Settings: Bead-based flow cytometry, Bodipy-FL-GTP binding to GST-Rac1; for Ki: measured here: Ki calculated from EC50

| SMILES | EC50 | Ki [nM] |
| --- | --- | --- |
| COc1ccc(C2CC(c3ccc(F)cc3)=NN2c2ccccc2)cc1OC (stereo not given) | inactive |  |
| COc1ccc(C2=NN(c3ccccc3)C(c3ccccc3C(F)(F)F)C2)cc1 (stereo not given) | inactive |  |
| O=[N+]([O-])c1cccc(C2CC(c3ccc(F)cc3)=NN2c2ccccc2)c1 (stereo not given) | inactive |  |
| COc1ccc(C2CC(c3cccc(Br)c3)=NN2c2ccc(S(N)(=O)=O)cc2)cc1 (stereo not given) | inactive |  |
| Cc1ccc(C2CC(c3ccccc3)=NN2c2ccc(S(N)(=O)=O)cc2)cc1 (stereo not given) | inactive |  |
| Brc1ccc(N2N=C(c3ccccc3)CC2c2ccccc2)cc1 (stereo not given) | inactive |  |
| COc1ccc(C2CC(C)=NN2c2ccc(S(N)(=O)=O)cc2)cc1 (stereo not given) | inactive | 10 |
| NS(=O)(=O)c1ccc(N2N=C(c3ccccc3)CC2c2ccc(Br)cc2)cc1 (stereo not given) | inactive |  |
| COc1ccc(C2CC(c3ccccc3C(F)(F)F)=NN2c2ccc(S(N)(=O)=O)cc2)cc1 (stereo not given) | inactive |  |
| COc1ccc(C2CC(c3cccc(C)c3)=NN2c2ccc(S(N)(=O)=O)cc2)cc1 (stereo not given) | inactive |  |
| O=[N+]([O-])c1cccc(C2CC(c3ccccc3)=NN2c2ccccc2)c1 (stereo not given) | inactive |  |
| COc1ccc(C2CC(c3ccccc3C)=NN2c2ccc(S(N)(=O)=O)cc2)cc1 (stereo not given) | inactive |  |
| COc1ccc(C2=NN(c3cccc(F)c3)C(c3ccc(OC)cc3)C2)cc1 (stereo not given) | inactive |  |
| COc1ccc(C2CC(c3cccc(N(C)C)c3)=NN2c2ccc(S(N)(=O)=O)cc2)cc1 (stereo not given) | inactive |  |
| COc1ccc(C2CC(C(C)(C)C)=NN2c2ccc(S(N)(=O)=O)cc2)cc1 (stereo not given) | inactive |  |
| O=[N+]([O-])c1ccc(N2N=C(c3ccccc3)CC2c2ccc(O)cc2)cc1 (stereo not given) | inactive |  |
| COc1ccc(C2CC(c3ccncc3)=NN2c2ccc(S(N)(=O)=O)cc2)cc1 (stereo not given) | inactive |  |
| COc1ccc(C2CC(c3cccc(C(F)(F)F)c3)=NN2c2ccc(S(N)(=O)=O)cc2)cc1 (stereo not given) | inactive |  |
| COc1ccc(C2CC(c3ccc(N(C)C)cc3)=NN2c2ccc(S(N)(=O)=O)cc2)cc1 (stereo not given) | inactive |  |
| COc1ccccc1C1CC(c2ccccc2)=NN1c1ccc(S(N)(=O)=O)cc1 (stereo not given) | inactive |  |
| O=S(=O)(c1ccc(N2N=C(c3ccc(Br)cc3)CC2c2ccccc2)cc1)C(F)F (stereo not given) | inactive | 790 |
| COc1ccc(C2CC(c3cccc(F)c3)=NN2c2ccc(S(N)(=O)=O)cc2)cc1 (stereo not given) | inactive |  |
| COc1ccc(C2=NN(c3ccccc3)C(c3ccc(OC)c(OC)c3C(=O)O)C2)cc1 (stereo not given) | inactive |  |

| SMILES | EC50 | Ki [nM] |
| --- | --- | --- |
| Cc1ccccc1C1CC(c2ccccc2)=NN1c1ccc(S(N)(=O)=O)cc1 (stereo not given) | inactive |  |
| COc1ccccc1N1N=C(c2ccccc2)CC1c1ccccc1 (stereo not given) | inactive |  |
| COc1ccc(C2CC(c3ccccc3)=NN2c2cccc(S(N)(=O)=O)c2)cc1 (stereo not given) | inactive |  |
| CN(C)c1ccc(C2CC(c3ccccc3)=NN2c2ccccc2)cc1 (stereo not given) | inactive |  |
| COc1ccc(C2CC(C3CCCCC3)=NN2c2ccc(S(N)(=O)=O)cc2)cc1 (stereo not given) | inactive |  |
| CN(C)c1ccc(C2CC(c3ccc(Cl)cc3)=NN2c2ccccc2)cc1 (stereo not given) | inactive |  |
| NS(=O)(=O)c1ccc(N2N=C(c3ccccc3)CC2c2cccc(Cl)c2)cc1 (stereo not given) | inactive |  |
| CN(C)c1ccc(C2CC(c3ccc(Br)cc3)=NN2c2ccccc2)cc1 (stereo not given) | inactive |  |
| COc1ccc(C2=NN(c3ccc(S(N)(=O)=O)cc3)C(c3ccc(OC)cc3)C2)cc1 (stereo not given) | inactive |  |
| COc1ccc(C2CC(c3ccccc3F)=NN2c2ccc(S(N)(=O)=O)cc2)cc1 (stereo not given) | inactive |  |
| COc1ccc(C2CC(c3ccc(Cl)cc3)=NN2c2ccc(S(N)(=O)=O)cc2)cc1 (stereo not given) | inactive |  |
| NS(=O)(=O)c1ccc(N2N=C(c3ccccc3)CC2c2ccccc2Br)cc1 (stereo not given) | inactive |  |
| FC(F)(F)c1ccccc1C1CC(c2ccc(Br)cc2)=NN1c1ccccc1 (stereo not given) | inactive |  |
| COc1ccc(C2CC(c3ccccc3)=NN2c2ccc(S(N)(=O)=O)cc2)cc1OC (stereo not given) | inactive |  |
| NS(=O)(=O)c1ccc(N2N=C(c3ccccc3)CC2c2cccc(Br)c2)cc1 (stereo not given) | inactive |  |
| COc1ccc(C2CC(c3ccccc3)=NN2c2ccc(C(=O)O)cc2)cc1 (stereo not given) | inactive |  |
| COc1cccc(C2CC(c3ccccc3)=NN2c2ccc(S(N)(=O)=O)cc2)c1 (stereo not given) | inactive |  |
| COc1ccc(C2CC(c3ccc(Cl)cc3)=NN2c2ccccc2)cc1OC (stereo not given) | inactive | 10 |
| COc1ccc(C2=NN(c3ccc(Cl)c(Cl)c3)C(c3ccc(OC)cc3)C2)cc1 (stereo not given) | inactive |  |
| Cc1cccc(N2N=C(c3ccccc3)CC2c2ccccc2)c1 (stereo not given) | inactive |  |
| FC(F)(F)c1cccc(N2N=C(c3ccc(Cl)cc3)CC2c2ccccc2Cl)c1 (stereo not given) | inactive |  |
| COc1ccc(C2CC(c3ccc(F)cc3)=NN2c2cccc(F)c2)cc1OC (stereo not given) | inactive | 3030 |
| COc1ccc(C2CC(c3ccccc3Br)=NN2c2ccc(S(N)(=O)=O)cc2)cc1 (stereo not given) | inactive | 40 |

| SMILES | EC50 | Ki [nM] |
| --- | --- | --- |
| Cc1ccc(-c2cc(C(F)(F)F)nn2-c2ccc(S(N)(=O)=O)cc2)cc1 | inactive | 3910 |
| COc1ccccc1C1CC(c2ccccc2)=NN1c1ccccc1 (stereo not given) | inactive |  |
| Fc1ccc(C2=NN(c3cccc(Br)c3)C(c3ccccc3)C2)cc1 (stereo not given) | inactive |  |
| COc1ccc(C2CC(c3cccnc3)=NN2c2ccc(S(N)(=O)=O)cc2)cc1 (stereo not given) | inactive |  |
| COc1ccc(C2=NN(c3ccccc3F)C(c3ccc(F)cc3)C2)cc1 (stereo not given) | inactive |  |
| NS(=O)(=O)c1ccc(N2N=C(c3ccccc3)CC2c2ccc(Cl)cc2)cc1 (stereo not given) | inactive |  |
| COc1ccc(C2CC(c3cccs3)=NN2c2ccc(S(N)(=O)=O)cc2)cc1 (stereo not given) | inactive |  |
| O=S(=O)(O)c1ccc(N2N=C(c3ccccc3)CC2c2ccccc2)cc1 (stereo not given) | inactive |  |
| COc1ccc(-c2cc(-c3ccccc3)nn2-c2ccc(S(N)(=O)=O)cc2)cc1 | inactive |  |
| Fc1ccccc1C1CC(c2ccc(Br)cc2)=NN1c1ccc(Br)cc1 (stereo not given) | inactive |  |
| COc1ccc(C2CC(c3ccccc3)=NN2c2ccc(Cl)c(C(=O)O)c2)cc1 (stereo not given) | inactive |  |
| COc1ccc(C2CC(c3ccc(F)cc3)=NN2c2cc(Cl)ccc2Cl)cc1 (stereo not given) | inactive |  |
| O=[N+]([O-])c1ccc(N2N=C(c3ccccc3)CC2c2ccccc2)cc1 (stereo not given) | inactive |  |
| Cc1onc(-c2ccccc2)c1-c1ccc(S(N)(=O)=O)cc1 | inactive |  |
| O=S(=O)(c1ccc(N2N=C(c3ccccc3)CC2c2ccccc2)cc1)C(F)F (stereo not given) | inactive |  |
| COc1ccc(C2=NN(c3ccccc3)C(c3ccc(Cl)cc3)C2)cc1 (stereo not given) | inactive | 840 |
| COc1ccc(C2CC(c3ccccc3Cl)=NN2c2ccc(S(N)(=O)=O)cc2)cc1 (stereo not given) | inactive |  |
| COc1ccc(C2CC(c3ccccc3)=NN2c2ccc([N+](=O)[O-])cc2)cc1 (stereo not given) | inactive |  |
| Cc1ccccc1N1N=C(c2ccccc2)CC1c1ccc(N(C)C)cc1 (stereo not given) | inactive |  |
| COc1ccc(C2=NN(c3cccc(F)c3)C(c3ccc(Cl)cc3)C2)cc1 (stereo not given) | inactive |  |
| COc1ccc(C2=NN(c3ccc(Cl)cc3)C(c3ccccc3F)C2)cc1 (stereo not given) | inactive | 3260 |
| COc1ccc(C2CC(c3ccc(F)cc3)=NN2c2ccc(S(N)(=O)=O)cc2)cc1 (stereo not given) | inactive |  |
| COc1ccc(C2CC(c3cccc(Cl)c3)=NN2c2ccc(S(N)(=O)=O)cc2)cc1 (stereo not given) | inactive |  |

| SMILES | EC50 | Ki [nM] |
| --- | --- | --- |
| CCc1ccc(C2=NN(c3ccc(S(N)(=O)=O)cc3)C(c3ccc(F)cc3)C2)cc1 (stereo not given) | inactive |  |
| CN(C)c1ccc(C2CC(c3ccc(F)cc3)=NN2c2ccccc2)cc1 (stereo not given) | inactive |  |
| COc1ccc(C2CC(c3cccc(OC)c3)=NN2c2ccc(S(N)(=O)=O)cc2)cc1 (stereo not given) | inactive |  |
| CC(=O)Oc1ccc(C2=NN(c3ccccc3)C(c3ccccc3)C2)cc1 (stereo not given) | inactive |  |
| Clc1cccc(N2N=C(c3ccccc3)CC2c2ccccc2)c1 (stereo not given) | inactive |  |
| COc1ccc(C2CC(c3ccc(Br)cc3)=NN2c2ccc(S(N)(=O)=O)cc2)cc1 (stereo not given) | inactive |  |
| COc1ccc(C2CC(c3ccccc3OC)=NN2c2ccc(S(N)(=O)=O)cc2)cc1 (stereo not given) | inactive |  |
| COc1ccc(C2CC(c3ccccc3)=NN2c2ccc(Cl)c(C(=O)O)c2)cc1OC (stereo not given) | inactive |  |
| COc1ccc(C2CC(c3ccc(Br)cc3)=NN2c2ccccc2Cl)cc1 (stereo not given) | inactive | 60 |
| Cc1cccc(C2CC(c3ccccc3)=NN2c2ccc(S(N)(=O)=O)cc2)c1 (stereo not given) | inactive |  |
| NS(=O)(=O)c1ccc(N2N=C(c3ccc(Cl)cc3)CC2c2ccccc2)cc1 (stereo not given) | inactive |  |
| COc1ccc(C2CC(c3ccsc3)=NN2c2ccc(S(N)(=O)=O)cc2)cc1 (stereo not given) | inactive |  |
| CN(C)c1ccc(C2CC(c3ccccc3)=NN2c2ccc([N+](=O)[O-])cc2)cc1 (stereo not given) | inactive |  |
| NS(=O)(=O)c1ccc(N2N=C(c3ccccc3)CC2c2ccccc2)cc1 (stereo not given) | inactive |  |
| NS(=O)(=O)c1ccc(N2N=C(c3ccccc3)CC2c2ccccc2Cl)cc1 (stereo not given) | inactive |  |
| Cc1ccccc1N1N=C(c2ccccc2)CC1c1cccc([N+](=O)[O-])c1 (stereo not given) | inactive |  |
| O=C(O)c1ccc(N2N=C(c3ccccc3)CC2c2ccccc2)cc1 (stereo not given) | inactive |  |
| Clc1ccc(N2N=C(c3ccccc3)CC2c2ccccc2)cc1 (stereo not given) | inactive |  |
| COc1ccc(C2CC(c3ccc(C)cc3)=NN2c2ccc(S(N)(=O)=O)cc2)cc1 (stereo not given) | inactive |  |
| COc1ccc(C2CC(c3ccc(C(F)(F)F)cc3)=NN2c2ccc(S(N)(=O)=O)cc2)cc1 (stereo not given) | inactive |  |
| NS(=O)(=O)c1ccc(N2N=C(c3ccc(Br)cc3)CC2c2ccc(F)cc2)cc1 (stereo not given) | inactive |  |
| COc1ccc(C2CC(c3ccccc3)=NN2c2ccc(C(N)=O)cc2)cc1 (stereo not given) | inactive |  |
